# Reference: ChEMBL document CHEMBL1275511, “Molecular and biochemical characterization of SHV-56, a novel inhibitor-resistant beta-lactamase from Klebsiella pneumoniae” (Antimicrob Agents Chemother, 2008)
# B1: Beta-lactamase SHV-11 (Escherichia coli), Q7X575 (protein)
# chain: MRYIRLCIISLLATLPLAVHASPQPLEQIKQSESQLSGRVGMIEMDLASGRTLTAWRADERFPMMSTFKVVLCGAVLARVDAGDEQLERKIHYRQQDLVDYSPVSEKHLADGMTVGELCAAAITMSDNSAANLLLATVGGPAGLTAFLRQIGDNVTRLDRWETELNEALPGDARDTTTPASMAATLRKLLTSQRLSARSQRQLLQWMVDDRVAGPLIRSVLPAGWFIADKTGAGERGARGIVALLGPNNKAERIVVIYLRDTPASMAERNQQIAGIGAALIEHWQR
# Columns and labels:
# [1] = system: Klebsiella pneumoniae; experiment: Antimicrobial activity against Klebsiella pneumoniae Kp2792 expressing beta-lactamase SHV-56 by agar dilution method; assay type: functional
# [2] = system: Escherichia coli; experiment: Activity of Escherichia coli Inhibitor-resistant beta-lactamase SHV-56; conditions: JM109
# [3] = system: Escherichia coli; experiment: Antimicrobial activity against Escherichia coli JM109 by agar dilution method; assay type: functional
# [4] = system: Escherichia coli; experiment: Antimicrobial activity against Escherichia coli JM109 harboring pE1MD plasmid expressing beta-lactamase SHV-56 by agar dilution method; assay type: functional
# [5] = system: Escherichia coli; experiment: Antimicrobial activity against Escherichia coli JM109 harboring pSC1 plasmid expressing beta-lactamase SHV-56 by agar dilution method in presence of clavulanic acid; assay type: functional
# [6] = system: Escherichia coli; experiment: Antimicrobial activity against Escherichia coli JM109 harboring pE1 plasmid expressing beta-lactamase SHV-11 by agar dilution method in presence of clavulanic acid; assay type: functional
# [7] = system: Escherichia coli; experiment: Antimicrobial activity against Escherichia coli JM109 by agar dilution method in presence of clavulanic acid; assay type: functional
# [8] = system: Escherichia coli; experiment: Antimicrobial activity against Escherichia coli JM109 harboring pE1MD plasmid expressing beta-lactamase SHV-56 by agar dilution method in presence of clavulanic acid; assay type: functional
# [9] = system: Escherichia coli; experiment: Antimicrobial activity against Escherichia coli JM109 harboring pE1 plasmid expressing beta-lactamase SHV-11 by agar dilution method; assay type: functional
# [10] = system: Escherichia coli; experiment: Antimicrobial activity against Escherichia coli JM109 harboring pSC1 plasmid expressing beta-lactamase SHV-56 by agar dilution method; assay type: functional
# [11] = system: Klebsiella pneumoniae; experiment: Antimicrobial activity against Klebsiella pneumoniae Kp2792 expressing beta-lactamase SHV-56 by agar dilution method in presence of clavulanic acid; assay type: functional
# [12] = system: Escherichia coli; experiment: Antimicrobial activity against Escherichia coli JM109 harboring pSC1 plasmid expressing beta-lactamase SHV-56 by agar dilution method in presence of Sulbactam; assay type: functional
# [13] = system: Escherichia coli; experiment: Antimicrobial activity against Escherichia coli JM109 harboring pE1 plasmid expressing beta-lactamase SHV-11 by agar dilution method in presence of Sulbactam; assay type: functional
# [14] = system: Escherichia coli; experiment: Antimicrobial activity against Escherichia coli JM109 harboring pE1MD plasmid expressing beta-lactamase SHV-56 by agar dilution method in presence of Sulbactam; assay type: functional
# [15] = system: Klebsiella pneumoniae; experiment: microbe, parasite or virus in culture; conditions: Kp2792
# [16] = system: Escherichia coli; experiment: Ratio of Kcat to Km for Escherichia coli Inhibitor-resistant beta-lactamase SHV-56; conditions: JM109
# [17] = system: Escherichia coli; experiment: Antimicrobial activity against Escherichia coli JM109 harboring pSC1 plasmid expressing beta-lactamase SHV-56 by agar dilution method in presence of Tazobactam; assay type: functional
# [18] = system: Escherichia coli; experiment: Antimicrobial activity against Escherichia coli JM109 harboring pE1 plasmid expressing beta-lactamase SHV-11 by agar dilution method in presence of Tazobactam; assay type: functional
# [19] = system: Klebsiella pneumoniae; experiment: Antimicrobial activity against Klebsiella pneumoniae Kp2792 expressing beta-lactamase SHV-56 by agar dilution method in presence of Tazobactam; assay type: functional
# [20] = system: Escherichia coli; experiment: Antimicrobial activity against Escherichia coli JM109 harboring pE1MD plasmid expressing beta-lactamase SHV-56 by agar dilution method in presence of Tazobactam; assay type: functional
# [21] = system: Escherichia coli; experiment: Antimicrobial activity against Escherichia coli JM109 by agar dilution method in presence of Tazobactam; assay type: functional
# [22] = Inhibition of Escherichia coli Inhibitor-resistant beta-lactamase SHV-56; parameters: species or system JM109
# [23] = substrate: CCN1CCN(C(=O)N[C@@H](C(=O)N[C@@H]2C(=O)N3[C@@H]2SC(C)(C)[C@@H]3C(=O)O)c2ccccc2)C(=O)C1=O; experiment: (§1) Ratio of Kcat to Km for Escherichia coli beta-lactamase SHV-11; conditions: JM109
# [24] = substrate: CC1(C)S[C@@H]2[C@H](NC(=O)[C@H](C(=O)O)c3ccsc3)C(=O)N2[C@H]1C(=O)O; experiment: as §1; conditions: JM109
# [25] = substrate: CO/N=C(\C(=O)N[C@@H]1C(=O)N2C(C(=O)O)=C(CSc3nc(=O)c(O)nn3C)CS[C@H]12)c1csc(N)n1; experiment: as §1; conditions: JM109
# [26] = substrate: CC(=O)OCC1=C(C(=O)O)N2C(=O)[C@@H](NC(=O)Cc3cccs3)[C@H]2SC1; experiment: as §1; conditions: JM109
# [27] = substrate: CO/N=C(\C(=O)N[C@@H]1C(=O)N2C(C(=O)O)=C(COC(N)=O)CS[C@H]12)c1ccco1; experiment: as §1; conditions: JM109
# [28] = substrate: CO/N=C(\C(=O)N[C@@H]1C(=O)N2C(C(=O)[O-])=C(C[N+]3(C)CCCC3)CS[C@H]12)c1csc(N)n1; experiment: (§2) Activity of Escherichia coli beta-lactamase SHV-11; conditions: JM109
# [29] = substrate: CO/N=C(\C(=O)N[C@@H]1C(=O)N2C(C(=O)O)=C(COC(C)=O)CS[C@H]12)c1csc(N)n1; experiment: as §2; conditions: JM109
# [30] = substrate: CCN1CCN(C(=O)N[C@@H](C(=O)N[C@@H]2C(=O)N3[C@@H]2SC(C)(C)[C@@H]3C(=O)O)c2ccccc2)C(=O)C1=O; experiment: as §2; conditions: JM109
# [31] = substrate: CC(C)(O/N=C(\C(=O)N[C@@H]1C(=O)N2C(C(=O)[O-])=C(C[n+]3ccccc3)CS[C@H]12)c1csc(N)n1)C(=O)O; experiment: as §2; conditions: JM109
# [32] = substrate: C[C@H]1[C@H](NC(=O)/C(=N\OC(C)(C)C(=O)O)c2csc(N)n2)C(=O)N1S(=O)(=O)O; experiment: as §2; conditions: JM109
# [33] = substrate: CC1(C)S[C@@H]2[C@H](NC(=O)[C@H](C(=O)O)c3ccsc3)C(=O)N2[C@H]1C(=O)O; experiment: as §2; conditions: JM109
# [34] = substrate: CO/N=C(\C(=O)N[C@@H]1C(=O)N2C(C(=O)O)=C(CSc3nc(=O)c(O)nn3C)CS[C@H]12)c1csc(N)n1; experiment: as §2; conditions: JM109
# [35] = substrate: CO[C@@]1(NC(=O)Cc2cccs2)C(=O)N2C(C(=O)O)=C(COC(N)=O)CS[C@@H]21; experiment: as §2; conditions: JM109
# [36] = substrate: CC(=O)OCC1=C(C(=O)O)N2C(=O)[C@@H](NC(=O)Cc3cccs3)[C@H]2SC1; experiment: as §2; conditions: JM109
# [37] = substrate: CO/N=C(\C(=O)N[C@@H]1C(=O)N2C(C(=O)O)=C(COC(N)=O)CS[C@H]12)c1ccco1; experiment: as §2; conditions: JM109
molecule,measurement,setting,value
CO/N=C(\C(=O)N[C@@H]1C(=O)N2C(C(=O)[O-])=C(C[N+]3(C)CCCC3)CS[C@H]12)c1csc(N)n1,MIC,[1],≤ 0.1 µg/mL
same,kcat,[2],< 0.01 s⁻¹
same,MIC,[3],≤ 0.1 µg/mL
CC(C)(O/N=C(\C(=O)N[C@@H]1C(=O)N2C(C(=O)[O-])=C(C[n+]3ccccc3)CS[C@H]12)c1csc(N)n1)C(=O)O,kcat,[2],< 0.01 s⁻¹
CO/N=C(\C(=O)N[C@@H]1C(=O)N2C(C(=O)O)=C(COC(N)=O)CS[C@H]12)c1ccco1,kcat,[2],< 0.01 s⁻¹
CO/N=C(\C(=O)N[C@@H]1C(=O)N2C(C(=O)O)=C(CSc3nc(=O)c(O)nn3C)CS[C@H]12)c1csc(N)n1,kcat,[2],< 0.01 s⁻¹
CO[C@@]1(NC(=O)Cc2cccs2)C(=O)N2C(C(=O)O)=C(COC(N)=O)CS[C@@H]21,kcat,[2],< 0.01 s⁻¹
C[C@H]1[C@H](NC(=O)/C(=N\OC(C)(C)C(=O)O)c2csc(N)n2)C(=O)N1S(=O)(=O)O,kcat,[2],< 0.01 s⁻¹
CC1(C)S[C@@H]2[C@H](NC(=O)[C@H](N)c3ccc(O)cc3)C(=O)N2[C@H]1C(=O)O [AMOXICILLIN],MIC,[1],> 4100 µg/mL
same,MIC,[4],4100 µg/mL
same,MIC,[5],512 µg/mL
same,MIC,[6],2 µg/mL
same,MIC,[7],2 µg/mL
same,MIC,[8],256 µg/mL
same,MIC,[3],4 µg/mL
same,MIC,[9],2050 µg/mL
same,MIC,[10],4100 µg/mL
same,MIC,[11],4100 µg/mL
CC1(C)S[C@@H]2[C@H](NC(=O)[C@H](N)c3ccccc3)C(=O)N2[C@H]1C(=O)O [AMPICILLIN],MIC,[1],> 4100 µg/mL
same,MIC,[4],1020 µg/mL
same,MIC,[12],128 µg/mL
same,MIC,[13],128 µg/mL
same,MIC,[14],64 µg/mL
same,MIC,[3],4 µg/mL
same,MIC,[9],1020 µg/mL
same,MIC,[10],2050 µg/mL
same,MIC,[15],128 µg/mL
CO/N=C(\C(=O)N[C@@H]1C(=O)N2C(C(=O)O)=C(COC(C)=O)CS[C@H]12)c1csc(N)n1 [CEFOTAXIME],MIC,[1],≤ 0.1 µg/mL
same,kcat,[2],< 0.01 s⁻¹
same,MIC,[3],≤ 0.1 µg/mL
CC(=O)OCC1=C(C(=O)O)N2C(=O)[C@@H](NC(=O)Cc3cccs3)[C@H]2SC1 [CEPHALOTHIN],MIC,[1],8 µg/mL
same,MIC,[4],8 µg/mL
same,kcat/Km,[16],5000 M⁻¹ s⁻¹
same,Km,[2],20 µM
same,kcat,[2],0.1 s⁻¹
same,MIC,[3],4 µg/mL
same,MIC,[9],8 µg/mL
same,MIC,[10],8 µg/mL
C[C@@H](O)[C@H]1C(=O)N2C(C(=O)O)=C(SCCNC=N)C[C@H]12 [IMIPENEM ANHYDROUS],MIC,[1],≤ 0.1 µg/mL
same,MIC,[3],≤ 0.1 µg/mL
CCN1CCN(C(=O)N[C@@H](C(=O)N[C@@H]2C(=O)N3[C@@H]2SC(C)(C)[C@@H]3C(=O)O)c2ccccc2)C(=O)C1=O [PIPERACILLIN],MIC,[17],2 µg/mL
same,MIC,[18],2 µg/mL
same,MIC,[1],512 µg/mL
same,MIC,[4],64 µg/mL
same,MIC,[19],4 µg/mL
same,kcat/Km,[16],1e+06 M⁻¹ s⁻¹
same,MIC,[20],1 µg/mL
same,MIC,[21],1 µg/mL
same,Km,[2],50 µM
same,kcat,[2],50 s⁻¹
same,MIC,[3],2 µg/mL
same,MIC,[9],64 µg/mL
same,MIC,[10],512 µg/mL
CC1(C)[C@H](C(=O)O)N2C(=O)C[C@H]2S1(=O)=O [SULBACTAM],IC50,[22],300 nM
CC1(C)S[C@@H]2[C@H](NC(=O)[C@H](C(=O)O)c3ccsc3)C(=O)N2[C@H]1C(=O)O [TICARCILLIN],MIC,[1],> 4100 µg/mL
same,MIC,[4],2050 µg/mL
same,kcat/Km,[16],70000 M⁻¹ s⁻¹
same,MIC,[5],256 µg/mL
same,MIC,[6],2 µg/mL
same,MIC,[7],2 µg/mL
same,Km,[2],450 µM
same,kcat,[2],30 s⁻¹
same,MIC,[8],128 µg/mL
same,MIC,[3],4 µg/mL
same,MIC,[9],2050 µg/mL
same,MIC,[10],> 4100 µg/mL
same,MIC,[11],1020 µg/mL
B1,kcat/Km,[23],750000 M⁻¹ s⁻¹
same,kcat/Km,[24],100000 M⁻¹ s⁻¹
same,kcat/Km,[25],350000 M⁻¹ s⁻¹
same,kcat/Km,[26],10000 M⁻¹ s⁻¹
same,kcat/Km,[27],250 M⁻¹ s⁻¹
same,kcat,[28],< 0.01 s⁻¹
same,kcat,[29],< 0.01 s⁻¹
same,Km,[30],40 µM
same,kcat,[30],30 s⁻¹
same,kcat,[31],< 0.01 s⁻¹
same,kcat,[32],< 0.01 s⁻¹
same,Km,[33],20 µM
same,Km,[34],300 µM
same,kcat,[34],0.01 s⁻¹
same,kcat,[35],< 0.01 s⁻¹
same,Km,[36],50 µM
same,kcat,[36],0.5 s⁻¹
same,Km,[37],200 µM
same,kcat,[37],0.05 s⁻¹
